Reference: ChEMBL document CHEMBL3244338, “Antineoplastic agents. Structure-activity relationship study of bis(substituted aminoalkylamino)anthraquinones” (J Med Chem, 1978)
The source made the active and inactive calls. The rule behind the calls is not given here.

Tests used:
[1] = test system: P388; test: Antitumor activity against mouse P388 cells allografted in BDF1 mouse assessed as mouse survival at 100 mg/kg administered 24 hrs post challenge relative to control; assay type: functional, organism-based; design: dose 100 mg/kg
[2] = test system: P388; test: Antitumor activity against mouse P388 cells allografted in BDF1 mouse assessed as mouse survival at 50 mg/kg administered 24 hrs post challenge relative to control; assay type: functional, organism-based; design: dose 50 mg/kg
[3] = test system: P388; test: Antitumor activity against mouse P388 cells allografted in BDF1 mouse assessed as mouse survival at 25 mg/kg administered 24 hrs post challenge relative to control; assay type: functional, organism-based; design: dose 25 mg/kg
[4] = test system: P388; test: Antitumor activity against mouse P388 cells allografted in BDF1 mouse assessed as increase in survival time at 100 mg/kg administered 24 hrs post challenge relative to control; assay type: functional
[5] = test system: P388; test: Antitumor activity against mouse P388 cells allografted in BDF1 mouse assessed as increase in survival time at 50 mg/kg administered 24 hrs post challenge relative to control; assay type: functional
[6] = test system: P388; test: Antitumor activity against mouse P388 cells allografted in BDF1 mouse assessed as increase in survival time at 25 mg/kg administered 24 hrs post challenge relative to control; assay type: functional
[7] = test system: Mus musculus; test: Toxicity in mouse P388 cells allografted BDF1 mouse assessed as body weight difference at 100 mg/kg administered 24 hrs post challenge relative to control; assay type: organism-based; design: dose 100 mg/kg; details: in vivo
[8] = test system: Mus musculus; test: Toxicity in mouse P388 cells allografted BDF1 mouse assessed as body weight difference at 50 mg/kg administered 24 hrs post challenge relative to control; assay type: organism-based; design: dose 50 mg/kg; details: in vivo
[9] = test system: Mus musculus; test: Toxicity in mouse P388 cells allografted BDF1 mouse assessed as body weight difference at 25 mg/kg administered 24 hrs post challenge relative to control; assay type: organism-based; design: dose 25 mg/kg; details: in vivo
[10] = test system: P388; test: Antitumor activity against mouse P388 cells allografted in BDF1 mouse assessed as mouse survival at 12.5 mg/kg administered 24 hrs post challenge relative to control; assay type: functional, organism-based; design: dose 12.5 mg/kg
[11] = test system: P388; test: Antitumor activity against mouse P388 cells allografted in BDF1 mouse assessed as mouse survival at 6.25 mg/kg administered 24 hrs post challenge relative to control; assay type: functional, organism-based; design: dose 6.25 mg/kg
[12] = test system: P388; test: Antitumor activity against mouse P388 cells allografted in BDF1 mouse assessed as increase in survival time at 12.5 mg/kg administered 24 hrs post challenge relative to control; assay type: functional
[13] = test system: P388; test: Antitumor activity against mouse P388 cells allografted in BDF1 mouse assessed as increase in survival time at 6.25 mg/kg administered 24 hrs post challenge relative to control; assay type: functional
[14] = test system: Mus musculus; test: Toxicity in mouse P388 cells allografted BDF1 mouse assessed as body weight difference at 12.5 mg/kg administered 24 hrs post challenge relative to control; assay type: organism-based; design: dose 12.5 mg/kg; details: in vivo
[15] = test system: Mus musculus; test: Toxicity in mouse P388 cells allografted BDF1 mouse assessed as body weight difference at 6.25 mg/kg administered 24 hrs post challenge relative to control; assay type: organism-based; design: dose 6.25 mg/kg; details: in vivo
[16] = test system: P388; test: Antitumor activity against mouse P388 cells allografted in BDF1 mouse assessed as increase in survival time at 3.13 mg/kg administered 24 hrs post challenge relative to control; assay type: functional
[17] = test system: P388; test: Antitumor activity against mouse P388 cells allografted in BDF1 mouse assessed as increase in survival time at 1.56 mg/kg administered 24 hrs post challenge relative to control; assay type: functional
[18] = test system: P388; test: Antitumor activity against mouse P388 cells allografted in BDF1 mouse assessed as increase in survival time at 0.78 mg/kg administered 24 hrs post challenge relative to control; assay type: functional
[19] = test system: P388; test: Antitumor activity against mouse P388 cells allografted in BDF1 mouse assessed as mouse survival at 3.13 mg/kg administered 24 hrs post challenge relative to control; assay type: functional, organism-based; design: dose 3.13 mg/kg
[20] = test system: P388; test: Antitumor activity against mouse P388 cells allografted in BDF1 mouse assessed as mouse survival at 1.56 mg/kg administered 24 hrs post challenge relative to control; assay type: functional, organism-based; design: dose 1.56 mg/kg
[21] = test system: P388; test: Antitumor activity against mouse P388 cells allografted in BDF1 mouse assessed as mouse survival at 0.78 mg/kg administered 24 hrs post challenge relative to control; assay type: functional, organism-based; design: dose 0.78 mg/kg
[22] = test system: Mus musculus; test: Toxicity in mouse P388 cells allografted BDF1 mouse assessed as body weight difference at 3.13 mg/kg administered 24 hrs post challenge relative to control; assay type: organism-based; design: dose 3.13 mg/kg; details: in vivo
[23] = test system: Mus musculus; test: Toxicity in mouse P388 cells allografted BDF1 mouse assessed as body weight difference at 1.56 mg/kg administered 24 hrs post challenge relative to control; assay type: organism-based; design: dose 1.56 mg/kg; details: in vivo
[24] = test system: Mus musculus; test: Toxicity in mouse P388 cells allografted BDF1 mouse assessed as body weight difference at 0.78 mg/kg administered 24 hrs post challenge relative to control; assay type: organism-based; design: dose 0.78 mg/kg; details: in vivo
[25] = test system: B16; test: Antitumor activity against mouse B16 cells allografted in BDF1 mouse assessed as increase in survival time at 16 mg/kg administered 24 hrs post challenge relative to control; assay type: functional
[26] = test system: B16; test: Antitumor activity against mouse B16 cells allografted in BDF1 mouse assessed as increase in survival time at 8 mg/kg administered 24 hrs post challenge relative to control; assay type: functional
[27] = test system: B16; test: Antitumor activity against mouse B16 cells allografted in BDF1 mouse assessed as increase in survival time at 4 mg/kg administered 24 hrs post challenge relative to control; assay type: functional

Structure (SMILES)	Activity [1]	Activity [2]	Activity [3]	T/C [4] [%]	T/C [5] [%]	T/C [6] [%]	Activity [7] [g]	Activity [8] [g]	Activity [9] [g]	Activity [10]	Activity [11]	T/C [12] [%]	T/C [13] [%]	Activity [14] [g]	Activity [15] [g]	further results
O=C1c2ccccc2C(=O)c2c(NCCSCCO)ccc(NCCSCCO)c21	Active	Active	Active	94	86	95	-2.2	-1.4	-1.6	–	–	–	–	–	–	–
O=C1c2ccccc2C(=O)c2c(NCCN3CCNCC3)ccc(NCCN3CCNCC3)c21	–	–	Active	–	134	137	–	-2.7	-1	Active	Active	117	125	-1.1	-0.4	–
CCCNCCNc1ccc(NCCNCCC)c2c1C(=O)c1ccccc1C2=O	Active	Active	Active	124	125	118	-2.6	-1.7	-0.8	–	–	–	–	–	–	–
O=C1c2ccccc2C(=O)c2c3c(cc(NCCNCCO)c21)N(CCO)CCN3	–	–	Active	101	163	155	-3.8	-3.5	-3.2	–	–	–	–	–	–	–
O=C1c2ccccc2C(=O)c2c(NCCNCCNCCO)ccc(NCCNCCNCCO)c21	–	Active	Active	120	112	110	-2.6	-1.3	-1.6	–	–	–	–	–	–	–
NCCNc1ccc(NCCN)c2c1C(=O)c1ccccc1C2=O	–	–	Active	–	–	215	–	–	-2.6	Active	Active	174	159	-1.1	-1.1	T/C [16]: 107%; T/C [17]: 137%; T/C [18]: 150%; Activity [19]: Active; Activity [20]: Active; Activity [21]: Active; Activity [22]: -0.9 g; Activity [23]: -1.6 g; Activity [24]: -1.3 g; T/C [25]: 281%; T/C [26]: 280%; T/C [27]: 280%
